Data: patent US7704953B2, “Phage displayed cell binding peptides” (MDRNA, Inc., priority 2006, dated 2010)

Tests used:
[1] = tested on: 16HBE140- cells; assay: Phage ELISA binding to 16HBE140- cells; type: cell-based, human; conditions: unfixed cells; for OD 450 nm: 10^10 pfu/ml, average of triplicate wells; for Binding to 16HBE140- cells (in words): phage ELISA
Method: Phage binding to 16HBE140- cells was analyzed using confluent cells grown with DMEM-F12 complete medium in 96-well collagen coated plates (BD Biosciences, San Diego, Calif.) at 37° C. in 5% CO2. The cells were washed with DPBS and phage diluted in DPBS containing 1% BSA (DPBS-BSA) were applied in 100 μl. Bound phage were detected using primary antibody (mouse IgG T7 tail fiber monoclonal antibody diluted 1:2000 in DPBS-BSA) and secondary antibody (goat anti-mouse IgG HRP diluted 1:5000 in DPBS-BSA) followed by detection with OptEIA reagents as above.
Binding of phage T7Select®10-3b displaying Trp cage TC5b (Trp cage) was compared to binding of three phage clones selected from the naïve Trp cage library after 3 rounds of panning against the human bronchial epithelial cell line 16HBE140-. Results represent the average of triplicate wells.

[2] = tested on: antibody AB167; assay: Phage ELISA for TAG suppression (binding of antibody AB167); design: species or system rabbit; conditions: 10^8 pfu/ml; relative to clone B1 grown in the same host; /B = nonsuppressor BLT5403, /C = suppressor C600CR; average of triplicate wells
Method: (§1) Phage purified by double precipitation with PEG was diluted in Dulbecco's PBS (DPBS) and applied to wells of a 96-well Maxisorp® plate (Nalge Nunc International®, Rochester, N.Y.) and allowed to bind for one hour followed by three washes with 400 μl of OptEIA wash buffer (BD Biosciences) and blocking with 1% BSA in TBS-Tween (0.1%). All washes were done at room temperature with slow orbital shaking. Antibody AB 167 diluted 1:500 was applied in PBS-T containing 1% BSA and allowed to bind for one hour at room temperature then washed five times with 400 μl of wash buffer. Bound antibody was detected with the secondary antibody goat anti-rabbit HRP diluted 1:1000 in PBS-T with 1% BSA applied for one hour and washed five times with 400 μl of wash buffer followed by development with OptEIA reagents according to the manufacturer's directions. Means were compared using Student's t-test.
Growth of phage containing the insert encoding Trp cage TC5b in the host BLT5403 which limits expression to 5 to 10 copies of the peptide, produced clones displaying the expected sequence […] (SEQ ID NO: 530) with a low frequency of mutations (one out of twelve sequenced clones). […] Some of the mutant clones contained the TAG stop codon within the Trp cage sequence and were expected to result in the display of truncated peptides. Two nonsense mutants, E7 which contained a TAG stop codon at Tyr-3 of the Trp cage sequence NL*IQWLKDGGPSSGRPPPS (SEQ ID NOs: 588 and 534, respectively in order of appearance) and E12 which contained a TAG stop codon at Trp-6 of the Trp cage sequence NLYIQ*LKDGGPSSGRPPPS (SEQ ID NOs: 535 and 553, respectively in order of appearance), were chosen to test the effectiveness of the suppressor host C600CR by ELISA. […] Since AB167 is a polyclonal antibody, some binding to the truncated peptides of E7 and E12 was expected with possibly greater binding to E12 because it is three residues longer than E7.
Binding of antibody AB167 to T7Select® 10-3b phage grown in the nonsuppressor host BLT5403 (B) was compared with binding to phage grown in the suppressor host C600CR (C). […] Binding of the antibody to phage mutants E7 and E12 displaying truncated Trp cages grown in B (E7/B and E12/B, respectively) was related to antibody binding to phage clone B I displaying the full length Trp cage on a percentage basis. The phage mutants grown in C (E7/C and E12/C) were likewise related to B1 grown in C. Results represent the average of triplicate wells.

[3] = tested on: HepG2 cells; assay: Cell-based ELISA for cell-specific binding, HepG2; design: species or system human; conditions: methanol-fixed HepG2 cells, M13 PHD-7 phage clones
Method: (§2) For screening cell-specific binding phage display peptides, confluent HepG2 or HUVEC cells grown in DMEM-F12-complete in a 96-well plate fixed with methanol, stored at 4° C. Applied 250 μl/well of diluted phage and incubated in wells for 1 hour while shaking. Stopped reactions with 75 ul of 1M HCl after ˜5-7 min, read at 450 nm.
(§3) Representative display peptides isolated from panning against either HepG2 or HUVEC cells with the Trp cage and M13 libraries were tested for cell-specific binding. The peptide having the amino acids sequence SIGYLPL (SEQ ID NO: 532) and the peptide having the amino acid sequence LTAELTP (SEQ ID NO: 533) served as positive HepG2 binding controls. The 7-mer display peptide represented by the amino acid sequence HPQ served as a negative binding control.
(§4) Staining by the positive controls was less intense than NLQEFLF (SEQ ID NO: 61).

[4] = tested on: HUVEC cells; assay: Cell-based ELISA for cell-specific binding, HUVEC; design: species or system human; conditions: M13 PHD-7 phage clone
Method: as §2, §3, §4

[5] = tested on: HepG2 cells; assay: Fluorescence microscopy with FITC-labeled phage on HepG2 cells; type: cell-based, human; conditions: ~e9 pfu per well, 1 hr, visualized at 200×
Method: The phage microscopy protocol is as follows:
1. Grow HepG2 cells on collagen I coated glass chamber slides to 100% confluence.
2. On the day of the experiment, wash cells 3 to 5 times ˜300 μl/well of PBS.
3. Fix with 100 μl/well of methanol (chilled at −20C) for 7 min at room temperature.
4. Wash 3-5 times with ˜300 μl/well of PBS.
5. Apply 10 μl/well (˜e9 pfu) of FITC-labeled M13 phage.
6. Incubate on a rotating platform at room temperature for 1 hr in the dark.
7. Wash 5 times with ˜300 μl/well of PBS.
8. Remove chambers, dry, mount, and visualize at 200×.
as §4

[6] = tested on: antibody AB167; assay: Phage ELISA with antibody AB167 for display of Trp cage TC5b on the phage capsid; type: binding, rabbit; conditions: 1×10^6, 1×10^7 and 1×10^8 phage per well
Method: as §1
Two negative controls were used. One was the 10-3b vector with no insert and the other was the 10-3b vector containing the S-Tag. All phage were incubated with the AB167 antibody at 1×10^6, 1×10^7 and 1×10^8 phage per well for the ELISA.

[7] = tested on: antibody AB167; assay: Western analysis of phage lysates with antibody AB167; type: binding, rabbit; conditions: SDS-PAGE separated proteins, AB167 diluted 1:2500
Method: For Western analysis, phage were purified by double precipitation with PEG and denatured by boiling in Tris-Glycine SDS sample buffer (2×) with 1% beta-mercaptoethanol (BME). A 10 μl sample containing 1×10^11 pfu/ml was loaded into a well of a 1 mm 4% to 20% Tris-Glycine gel (Invitrogen®) and electrophoresed for 1.5 hours at 150 volts (constant voltage) in Tris-Glycine SDS running buffer. The separated proteins were transferred to a PVDF membrane (1.5 hours at room temperature) and blocked with 3% non-fat dry milk in TBS-T (0.05%) for one hour at room temperature. The membrane was probed for two hours with antibody AB167 diluted 1:2500 at room temperature followed by three five minute washes with TBS-T. Goat anti-rabbit HRP diluted 1:5000 was used to detect the bound AB167 antibody. It was incubated with the membrane for one hour at room temperature followed by four 10 minute washes and the membrane was developed with SuperSignal West Femto Maximum Sensitivity Substrate® (Pierce®) according to the manufacturer's instructions. MagicMark XP Western Protein Standards were used for size reference standards.
For the Western blot analysis of Trp cage TC5b expressed with the 10-3b T7Select® vector, proteins in lysates from phage infected cells were separated by SDS-PAGE in Coomasie stained gel. […]

Substance | OD 450 nm [1] | Percent antibody binding [2] | other results
DAYPQWLFTPGPTSGRPPPL* [624-55-21] | 0.15 |  | 
DPYAQWLQSMGPHSGRPPPR* [624-55-29] | 0.39 |  | Binding to 16HBE140- cells (in words) [1]: demonstrated binding
DRYPQWLNGMGPSSGRPPPN* [624-55-20] | 0.22 |  | 
NL*IQWLKDGGPSSGRPPPS [E7/B] |  | 32% | 
NL*IQWLKDGGPSSGRPPPS [E7/C] |  | 65% | 
NLQEFLF [M13 PHD-7 phage display peptide isolated by panning against HepG2 cells] |  |  | Binding to HepG2 cells (cell-based ELISA) [3]: HepG2 specific binding; Binding to HUVEC cells (cell-based ELISA) [4]: did not bind; Binding/staining of FITC-labeled phage on methanol-fixed HepG2 cells [5]: bound
NLYIQ*LKDGGPSSGRPPPS [E12/B] |  | 50% | 
NLYIQ*LKDGGPSSGRPPPS [E12/C] |  | 62% | 
NLYIQWLKDGGPSSGRPPPS [10-3b/TC5b, reference compound] | 0.22 |  | ELISA signal with antibody AB167 [6]: signal was detected; Binding of antibody AB167 to protein of phage lysate (Western blot) [7]: contained a protein that bound the Trp cage specific antibody AB167; Binding to 16HBE140- cells (in words) [1]: low
NLYIQWLKDGGPSSGRPPPS [B1/C] |  | 100% | 
